Measured values from patent US5672609A, “Pyridine compounds, intermediates compositions and methods of use” (Eli Lilly and Company, priority 1996, dated 1997).

Legend:
Type in all cases: in vivo, female Sprague Dawley rats
[1] = tested on: uterus; experiment: Uterine weight in ovariectomized rats, 4-day oral dosing (Table 1); conditions: Rattus norvegicus, po, 96 h, OVX rats, daily for 4 days, read-out: Uterine Wt. (% inc. vs. OVX); for change in vivo at 1 mg/kg: 1 mg/kg oral; for change in vivo at 10 mg/kg: 10 mg/kg oral; for change in vivo at 25 mg/kg: 25 mg/kg oral; for change in vivo at 0.1 mg/kg: 0.1 mg/kg oral
Protocol: In the examples illustrating the methods, a post-menopausal model was used in which effects of different treatments upon circulating lipids were determined.
(§1) Seventy-five day old female Sprague Dawley rats (weight range of 200 to 225 g) were obtained from Charles River Laboratories (Portage, Mich.). The animals were either bilaterally ovariectomized (OVX) or exposed to a sham surgical procedure at Charles River Laboratories, and then shipped after one week. Upon arrival, they were housed in metal hanging cages in groups of 3 or 4 per cage and had ad libitum access to food (calcium content approximately 0.5%) and water for one week. Room temperature was maintained at 22.2° ±1.7° C. with a minimum relative humidity of 40%. The photoperiod in the room was 12 hours light and 12 hours dark.
(§2) Dosing Regimen Tissue Collection. After a one week acclimation period (therefore, two weeks post-OVX) daily dosing with test compound was initiated. 17α-ethynyl estradiol or the test compound were given orally, unless otherwise stated, as a suspension in 1% carboxymethylcellulose or dissolved in 20% cyclodextrin. Animals were dosed daily for 4 days. Following the dosing regimen, animals were weighed and anesthetized with a ketamine: Xylazine (2:1, V:V) mixture and a blood sample was collected by cardiac puncture. The animals were then sacrificed by asphyxiation with CO2, the uterus was removed through a midline incision, and a wet uterine weight was determined.
(§3) Data presented in Table 1 below show comparative results among ovariectomized rats, rats treated with 17α-ethynyl estradiol (EE2; an orally available form of estrogen), and rats treated with certain compounds of the present invention. […] This uterine response to estrogen is well recognized in the art.
(§4) The data presented in Table 1 below reflects the response of 5 to 6 rats per treatment.

[2] = tested on: Uterine Eosinophil Peroxidase (EPO); experiment: Uterine Eosinophil Peroxidase (EPO) Assay (Table 1); parameters: key to Uterine EPO (V. max): Vmax of absorbance increase at 450 nm, monitored over 1 min; conditions: OVX rats, daily for 4 days
Source text: as §1, §2
Uterine Eosinomhil Peroxidase (EPO) Assay. Uteri were kept at 4° C. until time of enzymatic analysis. The uteri were then homogenized in 50 volumes of 50 mM Tris buffer (pH-8.0) containing 0.005% Triton X-100. Upon addition of 0.01% hydrogen peroxide and 10 mM O-phenylenediamine (final concentrations) in Tris buffer, increase in absorbance was monitored for one minute at 450 nm. The presence of eosinophils in the uterus is an indication of estrogenic activity of a compound. The maximal velocity of a 15 second interval was determined over the initial, linear portion of the reaction curve.
As is expressed in the below data, estrogenicity also was assessed by evaluating the response of eosinophil infiltration into the uterus.
as §4

[3] = tested on: Serum cholesterol; experiment: Serum cholesterol in ovariectomized rats, 4-day oral dosing (Table 1); conditions: Rattus norvegicus, po, 96 h, OVX rats, daily for 4 days; for inhibition in vivo at 1 mg/kg: 1 mg/kg oral; for inhibition in vivo at 1 mg/kg / inhibition in vivo at 10 mg/kg / inhibition in vivo at 25 mg/kg / inhibition in vivo at 0.1 mg/kg: read-out: Serum Cholesterol (% dec. vs. OVX); for inhibition in vivo at 10 mg/kg: 10 mg/kg oral; for inhibition in vivo at 25 mg/kg: 25 mg/kg oral; for ED50: oral, dose column in mg/kg, read-out: ED50 (effective dose to dec. serum chol. by 50%); for inhibition in vivo at 0.1 mg/kg: 0.1 mg/kg oral
Source text: as §1, §2
Cholesterol Analysis. Blood samples were allowed to clot at room temperature for 2 hours, and serum was obtained following centrifugation for 10 minutes at 3000 rpm. Serum cholesterol was determined using a Boehringer Mannheim Diagnostics high performance cholesterol assay. Briefly the cholesterol was oxidized to cholest-4-en-3-one and hydrogen peroxide. The hydrogen peroxide was then reacted with phenol and 4-aminophenazone in the presence of peroxidase to produce a p-quinone imine dye, which was read spectrophotometrically at 500 nm. Cholesterol concentration was then calculated against a standard curve. The entire assay was automated using a Biomek Automated Workstation.
as §3, §4

Structure (SMILES) | change in vivo at 1 mg/kg [1] [%] | change in vivo at 10 mg/kg [1] [%] | change in vivo at 25 mg/kg [1] [%] | Uterine EPO (V. max) ([2]; 1 mg/kg oral) | Uterine EPO (V. max) ([2]; 10 mg/kg oral) | Uterine EPO (V. max) ([2]; 25 mg/kg oral) | inhibition in vivo at 1 mg/kg [3] [%] | inhibition in vivo at 10 mg/kg [3] [%] | inhibition in vivo at 25 mg/kg [3] [%] | ED50 [3] [mg/kg] | inhibition in vivo at 0.1 mg/kg [3] [%] | change in vivo at 0.1 mg/kg [1] [%] | Uterine EPO (V. max) ([2]; 0.1 mg/kg oral)
COc1ccc(-c2ccc(C)nc2-c2ccc(OCCN(C)C)cc2)cc1 [Example 1, 2-[4-[2-(1-N,N-Dimethylamino)ethoxy]phenyl]-3-(4-methoxyphenyl)-6-methylpyridine] | 0.6 | 2.6 | 5.2 | 2.9 | 2.5 | 2.3 | 15 | 14.9 | 22.2 | > 1000 |  |  | 
COc1ccc(-c2ccc(C)nc2-c2ccc(OCCN3CCCCC3)cc2)cc1 [Example 7, 2-[4-[2-(1-Piperidinyl)ethoxy]phenyl]-3-(4-methoxyphenyl)-6-methylpyridine] |  |  | -5.6 |  |  | 3.6 |  |  | -1.2 |  | 23.2 |  | 
Cc1ccc(-c2ccc(O)cc2)c(-c2ccc(OCCN3CCCCC3)cc2)n1 [Example 10, 2-[4-[2-(1-Piperidinyl)ethoxy]phenyl]-3-(4-hydroxyphenyl)-6-methylpyridine] | 3.4 | 7 | 47 | 4.4 | 3.4 | 6.8 | 8.4 | 1.7 | 17.9 | > 10 |  |  | 
Cc1ccc(-c2ccc(O)cc2)c(-c2ccc(OCCN(C)C)cc2)n1 [Example 8, 2-[4-[2-(N,N-Dimethylamino)ethoxy]phenyl]-3-(4-hydroxyphenyl)-6-methylpyridine] | -1.5 | -1 | 41.6 | 5 | 6.7 | 58.6 | 15.7 | 1.5 | 46.4 | 26 |  |  | 
COc1ccc(-c2ccc(C)nc2-c2ccc(OCCN3CCOCC3)cc2)cc1 [Example 3, 2-[4-[2-(4-Morpholinyl)ethoxy]phenyl]-3-(4-methoxyphenyl)-6-methylpyridine] | 4.9 | -6.1 | -2.3 | 10.8 | 6 | 3.8 | 4.5 | 1.4 | -11.6 | > 10 |  |  | 
COc1ccc(-c2ccc(C)nc2-c2ccc(OCCN3CCCC3)cc2)cc1 [Example 2, 2-[4-[2-(1-Pyrrolidinyl)ethoxy]phenyl]-3-(4-methoxyphenyl)-6-methylpyridine] | 12.7 | -12.5 | 19.5 | 6.6 | 5.9 | 59.8 | -23.6 | -33.5 | 9.7 | > 10 |  |  | 
COc1ccc(-c2ccc(-c3ccc(OC)cc3)c(-c3ccc(OCCN4CCCC4)cc3)n2)cc1 [Example 5, 2-[4-[2-(1-Pyrrolidinyl)ethoxy]phenyl]-3,6-bis(4-methoxyphenyl)pyridine] | -7.6 | 27.2 |  | 4.2 | 23.1 |  | 14 | 23.5 |  | > 10 | 2.4 | -6.5 | 4.5
Oc1ccc(-c2ccc(-c3ccccc3)nc2-c2ccc(OCCN3CCCC3)cc2)cc1 [Example 13, 2-[4-[2-(1-Pyrrolidinyl)ethoxy]phenyl]-3-(4-hydroxyphenyl)-6-phenylpyridine] | 54 | 38.8 | 35.5 |  |  |  | 53.8 | 36.8 |  | < 1 | 1.8 | 23.8 | 4.5
Cc1ccc(-c2ccc(O)cc2)c(-c2ccc(OCCN3CCOCC3)cc2)n1 [Example 11, 2-[4-[2-(4-Morpholinyl)ethoxy]phenyl]-3-(4-hydroxyphenyl)-6-methylpyridine] | -0.8 | 27 | 5 | 4.8 | 4.9 | 4.4 | 16 | 18.2 | -3.6 | > 10 |  |  | 
